Results as given in ChEMBL document CHEMBL5352470, “RS6077 induces mitotic arrest and selectively activates cell death in human cancer cell lines and in a lymphoma tumor in vivo” (Eur J Med Chem, 2023).
One block for each molecule: values may come before it. Calls of active or inactive are those of the source. The rule behind the calls is not given here.

How the values were obtained:
TERT-RPE1 [1] = experiment: Induction of cell cycle arrest in human TERT-RPE1 cells assessed as accumulation of cells at G1 phase at 100 nM incubated for 72 hrs by annexin V-FITC and PI staining based flow cytometry analysis; assay type: functional
TERT-RPE1 [2] = experiment: Induction of cell cycle arrest in human TERT-RPE1 cells assessed as accumulation of cells at G1 phase at 1000 nM incubated for 72 hrs by annexin V-FITC and PI staining based flow cytometry analysis; assay type: functional
TERT-RPE1 [3] = experiment: Induction of cell cycle arrest in human TERT-RPE1 cells assessed as accumulation of cells at G1 phase at 2500 nM incubated for 72 hrs by annexin V-FITC and PI staining based flow cytometry analysis; assay type: functional
TERT-RPE1 [4] = experiment: Induction of cell cycle arrest in human TERT-RPE1 cells assessed as accumulation of cells at S phase at 100 nM incubated for 72 hrs by annexin V-FITC and PI staining based flow cytometry analysis; assay type: functional
TERT-RPE1 [5] = experiment: Induction of cell cycle arrest in human TERT-RPE1 cells assessed as accumulation of cells at S phase at 1000 nM incubated for 72 hrs by annexin V-FITC and PI staining based flow cytometry analysis; assay type: functional
TERT-RPE1 [6] = experiment: Induction of cell cycle arrest in human TERT-RPE1 cells assessed as accumulation of cells at S phase at 2500 nM incubated for 72 hrs by annexin V-FITC and PI staining based flow cytometry analysis; assay type: functional
TERT-RPE1 [7] = experiment: Induction of cell cycle arrest in human TERT-RPE1 cells assessed as accumulation of cells at G2/M phase at 100 nM incubated for 72 hrs by annexin V-FITC and PI staining based flow cytometry analysis; assay type: functional
TERT-RPE1 [8] = experiment: Induction of cell cycle arrest in human TERT-RPE1 cells assessed as accumulation of cells at G2/M phase at 1000 nM incubated for 72 hrs by annexin V-FITC and PI staining based flow cytometry analysis; assay type: functional
TERT-RPE1 [9] = experiment: Induction of cell cycle arrest in human TERT-RPE1 cells assessed as accumulation of cells at G2/M phase at 2500 nM incubated for 72 hrs by annexin V-FITC and PI staining based flow cytometry analysis; assay type: functional
HeLa [10] = experiment: Induction of cell cycle arrest in human HeLa cells assessed as accumulation of cells at G1 phase at 100 nM incubated for 72 hrs by annexin V-FITC and PI staining based flow cytometry analysis; assay type: functional
HeLa [11] = experiment: Induction of cell cycle arrest in human HeLa cells assessed as accumulation of cells at G1 phase at 1000 nM incubated for 72 hrs by annexin V-FITC and PI staining based flow cytometry analysis; assay type: functional
HeLa [12] = experiment: Induction of cell cycle arrest in human HeLa cells assessed as accumulation of cells at G1 phase at 2500 nM incubated for 72 hrs by annexin V-FITC and PI staining based flow cytometry analysis; assay type: functional
HeLa [13] = experiment: Induction of cell cycle arrest in human HeLa cells assessed as accumulation of cells at S phase at 100 nM incubated for 72 hrs by annexin V-FITC and PI staining based flow cytometry analysis; assay type: functional
HeLa [14] = experiment: Induction of cell cycle arrest in human HeLa cells assessed as accumulation of cells at S phase at 1000 nM incubated for 72 hrs by annexin V-FITC and PI staining based flow cytometry analysis; assay type: functional
HeLa [15] = experiment: Induction of cell cycle arrest in human HeLa cells assessed as accumulation of cells at S phase at 2500 nM incubated for 72 hrs by annexin V-FITC and PI staining based flow cytometry analysis; assay type: functional
HeLa [16] = experiment: Induction of cell cycle arrest in human HeLa cells assessed as accumulation of cells at G2/M phase at 100 nM incubated for 72 hrs by annexin V-FITC and PI staining based flow cytometry analysis; assay type: functional
HeLa [17] = experiment: Induction of cell cycle arrest in human HeLa cells assessed as accumulation of cells at G2/M phase at 1000 nM incubated for 72 hrs by annexin V-FITC and PI staining based flow cytometry analysis; assay type: functional
HeLa [18] = experiment: Induction of cell cycle arrest in human HeLa cells assessed as accumulation of cells at G2/M phase at 2500 nM incubated for 72 hrs by annexin V-FITC and PI staining based flow cytometry analysis; assay type: functional
AHH-1 [19] = experiment: Induction of cell cycle arrest in human AHH-1 cells assessed as accumulation of cells at G1 phase at 100 nM incubated for 72 hrs by annexin V-FITC and PI staining based flow cytometry analysis; assay type: functional
AHH-1 [20] = experiment: Induction of cell cycle arrest in human AHH-1 cells assessed as accumulation of cells at G1 phase at 1000 nM incubated for 72 hrs by annexin V-FITC and PI staining based flow cytometry analysis; assay type: functional
AHH-1 [21] = experiment: Induction of cell cycle arrest in human AHH-1 cells assessed as accumulation of cells at G1 phase at 2500 nM incubated for 72 hrs by annexin V-FITC and PI staining based flow cytometry analysis; assay type: functional
AHH-1 [22] = experiment: Induction of cell cycle arrest in human AHH-1 cells assessed as accumulation of cells at S phase at 100 nM incubated for 72 hrs by annexin V-FITC and PI staining based flow cytometry analysis; assay type: functional
AHH-1 [23] = experiment: Induction of cell cycle arrest in human AHH-1 cells assessed as accumulation of cells at S phase at 1000 nM incubated for 72 hrs by annexin V-FITC and PI staining based flow cytometry analysis; assay type: functional
AHH-1 [24] = experiment: Induction of cell cycle arrest in human AHH-1 cells assessed as accumulation of cells at S phase at 2500 nM incubated for 72 hrs by annexin V-FITC and PI staining based flow cytometry analysis; assay type: functional
AHH-1 [25] = experiment: Induction of cell cycle arrest in human AHH-1 cells assessed as accumulation of cells at G2/M phase at 100 nM incubated for 72 hrs by annexin V-FITC and PI staining based flow cytometry analysis; assay type: functional
AHH-1 [26] = experiment: Induction of cell cycle arrest in human AHH-1 cells assessed as accumulation of cells at G2/M phase at 1000 nM incubated for 72 hrs by annexin V-FITC and PI staining based flow cytometry analysis; assay type: functional
AHH-1 [27] = experiment: Induction of cell cycle arrest in human AHH-1 cells assessed as accumulation of cells at G2/M phase at 2500 nM incubated for 72 hrs by annexin V-FITC and PI staining based flow cytometry analysis; assay type: functional
HeLa [28] = experiment: Induction of cell cycle arrest in human HeLa cells assessed as accumulation of cells at sub-G1 phase incubated for 72 hrs by annexin V-FITC and PI staining based flow cytometry analysis; assay type: functional
AHH-1 [29] = experiment: Induction of cell cycle arrest in human AHH-1 cells assessed as accumulation of cells at sub-G1 phase incubated for 72 hrs by annexin V-FITC and PI staining based flow cytometry analysis; assay type: functional
AHH-1 [30] = experiment: Induction of apoptosis in human AHH-1 cells at 100 to 2500 nM measured after 72 hrs by annexin V-FITC and PI staining based flow cytometry analysis; assay type: functional, cell-based; conditions: dose 100-2500 nM
Farage = experiment: Antiproliferative activity against human Farage cells assessed as inhibition of cell growth measured for 72 hrs by MTT assay; assay type: functional, cell-based
KARPAS-422 = experiment: Antiproliferative activity against human KARPAS-422 cells assessed as inhibition of cell growth measured for 72 hrs by MTT assay; assay type: functional, cell-based; conditions: KARPAS-422, 72 h
TMD8 = experiment: Antiproliferative activity against human TMD8 cells assessed as inhibition of cell growth measured for 72 hrs by MTT assay; assay type: functional, cell-based; conditions: TMD8, 72 h
U2932 = experiment: Antiproliferative activity against human U2932 cells assessed as inhibition of cell growth measured for 72 hrs by MTT assay; assay type: functional, cell-based; conditions: U2932, 72 h
Z-138 = experiment: Antiproliferative activity against human Z138 cells assessed as inhibition of cell growth measured for 72 hrs by MTT assay; assay type: functional, cell-based; conditions: Z-138, 72 h
Maver1 = experiment: Antiproliferative activity against human MAVER-1 cells assessed as inhibition of cell growth measured for 72 hrs by MTT assay; assay type: functional, cell-based; conditions: Maver1, 72 h
[31] = Metabolic stability in human liver microsome assessed as half life measured upto 60 mins by LC-MS/MS analysis; assay type: ADME; conditions: liver microsomes
[32] = Metabolic stability in mouse liver microsome assessed as half life measured upto 60 mins by LC-MS/MS analysis; assay type: ADME; conditions: liver microsomes

Compound: COc1ccc(/C=C\c2cc(OC)c(OC)c(OC)c2)cc1O [COMBRETASTATIN A4]
Activity (TERT-RPE1 [1]): 23%
Activity (TERT-RPE1 [2]): 17.1%
Activity (TERT-RPE1 [3]): 19%
Activity (TERT-RPE1 [4]): 9%
Activity (TERT-RPE1 [5]): 8.4%
Activity (TERT-RPE1 [6]): 5.4%
Activity (TERT-RPE1 [7]): 68%
Activity (TERT-RPE1 [8]): 74.6%
Activity (TERT-RPE1 [9]): 73%
Activity (HeLa [10]): 23.4%
Activity (HeLa [11]): 10.1%
Activity (HeLa [12]): 8.8%
Activity (HeLa [13]): 15.5%
Activity (HeLa [14]): 16.8%
Activity (HeLa [15]): 9.2%
Activity (HeLa [16]): 61.1%
Activity (HeLa [17]): 73.1%
Activity (HeLa [18]): 75.2%
Activity (AHH-1 [19]): 8.6%
Activity (AHH-1 [20]): 7.8%
Activity (AHH-1 [21]): 7%
Activity (AHH-1 [22]): 17%
Activity (AHH-1 [23]): 13.4%
Activity (AHH-1 [24]): 10.3%
Activity (AHH-1 [25]): 74.5%
Activity (AHH-1 [26]): 78.8%
Activity (AHH-1 [27]): 74.1%
Activity (HeLa [28]): Active
Activity (AHH-1 [29]): Active
Activity (AHH-1 [30]): Active
IC50 (Farage): 700 pM
IC50 (KARPAS-422): 580 pM
IC50 (TMD8): 660 pM
IC50 (U2932): 890 pM
IC50 (Z-138): 780 pM
IC50 (Maver1): 4600 pM

half-life [31]: 47 min
half-life [32]: 11.8 min
Compound: CC(C)NCC(O)COc1cccc2ccccc12 (stereo not given) [PROPRANOLOL]

half-life [31]: 8.3 min
half-life [32]: 3.3 min
Compound: CCOc1ccc2ccc(=O)oc2c1 [ETHOXYCOUMARIN]
